The record followed here is patent US7674580B2, “Compositions and methods for the modulation of sphingolipid metabolism and/or signaling” (priority 2002, dated 2010).

One experiment deals with wild type flies. As to the kind of experiment: LCBP levels in wild type flies grown on sphingosine kinase inhibitor. The format is in vivo, Drosophila melanogaster. Conditions: wild type flies grown on D,L-threo-DHS. The protocol:
(§1) Analysis of Drosophila sphingolipids: 100 mg of flies were homogenized in 6 ml of ice cold methanol/water 1:1 (vol:vol) with a Potter-Elvehjem homogenizer with a loose pestle followed by a tight pestle until the pestle moved smoothly. Extract was further homogenized by tip sonication for 3 times 20 sec. Extract was spun at low speed and supernatant was removed and dried down in speed vac. Extract was resuspended in 500 μl of methanol containing 0.1M ammonium hydroxide and incubated for 1 hour at 37° C. Following incubation the extract was dried down in speed vac. Extract was resuspended in 500 μl of 50% methanol containing 0.1% glacial acetic acid and applied to a C18E STRATA solid phase extraction column. C18E STRATA column was washed with 50% methanol containing 0.1% glacial acetic acid followed by a wash with 100% methanol containing 0.1% glacial acetic acid. Lipids of interest were eluted with methanol/10 mM ammonium acetate, 9:1 (vol:vol). Lipids were dried down in speed vac. and o-pthaladehyde labeled for HPLC analysis as previously described (Kim, S., Fyrst, H. and Saba, J. (2000). Genetics 156, 1519-29.).

In experiment [1] the test system is Sply^05091 homozygous flies. In words: Adult flight performance of Sply^05091 homozygous flies grown on sphingosine kinase inhibitor. Type of experiment: in vivo, Drosophila melanogaster.
Experiment [2] deals with Sply^05091 homozygous flies. As to the kind of experiment: LCB/LCBP levels in Sply^05091 homozygous flies grown on sphingosine kinase inhibitor (HPLC). Type of experiment: in vivo, Drosophila melanogaster. The protocol: as §1
The test system of a further experiment is wildtype cells. In words: Sphingosine sensitivity (growth) of wildtype yeast. The format is cell-based, S. cerevisiae. The following applies: 10 μM sphingosine. The protocol:
(§2) A further test for SPL activity may be based upon functional complementation in the bst1Δ strain. It has been found, within the context of the present invention, that bst1Δ cells are highly sensitive to D-erythro-sphingosine.
Functional complementation in yeast: Strains of interest were grown to saturation in liquid culture for 2-3 days. They were then resuspended in minimal medium, placed in the first row of a 96-well plate and diluted serially from 1:2 to 1:4000 across the plate. […] Louis, Mo.). […] At this concentration of NP40, no effects on cell viability are observed. Plates were incubated at 30° C. for two days and assessed visually for differences in growth.

In another experiment the test system is bst1Δ cells. In words: Sphingosine sensitivity (growth) of SPL-deleted yeast. Type of experiment: cell-based, S. cerevisiae.
Text: Within certain embodiments, an in vitro assay for SPL activity may be performed using cellular extracts prepared from cells that express the polypeptide of interest. […] It has been found, within the context of the present invention, that yeast cells containing deletion of the SPL gene (BST1) are suitable for use in evaluating the SPL activity of a polypeptide. bst1Δ cells can be generated from S. cerevisiae using standard techniques, such as PCR, as described herein. […] For such a test, a polypeptide is preferably expressed on a high-copy yeast vector (such as pYES2, which is available from Invitrogen) yielding more than 20 copies of the gene per cell. In general, a polypeptide has SPL activity if, when expressed using such a vector in a bst1Δ cell, a cellular extract results in a two-fold increase in substrate degradation over the level observed for an extract prepared from cells not expressing the polypeptide.
as §2
Functional complementation in yeast: Strains of interest were grown to saturation in liquid culture for 2-3 days. […] Plates were incubated at 30° C. for two days and assessed visually for differences in growth.

Where [3] appears, read: Sply^05091 homozygous flies + 1 mM D,L-threo-DHS, separate experiment, mixed-age adults.

Marks after values point to notes of the source that are not given here.

On to `CCCCCCCCCCCCCCC[C@H](O)[C@@H](N)CO` [D,L-threo-DHS, D,L-threo-dihydrosphingosine], for which the “LCBP levels, % of normal levels” value with wild type flies came to 20%. In experiment [1] (Sply^05091 + 1 mM D,L-threo-DHS, score upward=3, lateral=2, downward=1, flightless=0, ±s.e.m., untreated Sply^05091 0.40 ± 0.036), the Average flight score amounted to 0.62 ± 0.057. The Flight performance result in experiment [1] (Sply^05091 mutants grown on media supplemented with 10 μM D,L-threo-DHS, F2 progeny) is reported as “slight but significant improvement in flight performance”. In addition, in experiment [2] (Sply^05091 homozygotes grown in the presence of sphingosine kinase inhibitor), the “Reduction of LCBP levels” value was “approximately 20%”. Besides, in experiment [2] (setting [3]), the “C14/16 LCBPs, percentage of untreated controls” value is given as 81%* and the “C14/16 LCBs, percentage of untreated controls” value amounted to 136%*.

Consider `CCCCCCCCCCCCC/C=C/[C@@H](O)[C@@H](N)CO` [D-erythro-sphingosine], for which, in the experiment on wildtype cells, the “Growth of wildtype cells” value is reported as “no effect on the growth”. In addition, the “Growth of bst1Δ cells” value in the experiment on bst1Δ cells (concentrations as low as 10 μM sphingosine) is given as “completely inhibit the growth”. Further, the “Proliferation of dpl1Δ strain” value with bst1Δ cells (media containing low concentrations of D-erythro-sphingosine) is given as “cannot proliferate”.
